Laboratory results: patent publication US8993606B2, “Oral formulations for treating metal overload” (FerroKin BioSciences, Inc., priority 2011, dated 2015)
Where a name gives a salt, the structure may show the parent alone. One block for each compound: values may come before it.

What was measured:
Assay type in all cases: physicochemical
[1] = Slurry experiments of magnesium salt form A, XRPD result; set-up: key: IS stands for insufficient solid
Description: The results of slurry experiments of (S)-3′-(OH)-DADFT-PE magnesium salt form A are given below in Table 36, wherein d stands for day, and IS stands for insufficient solid.

[2] = Solvent grinding experiments of magnesium salt form A, XRPD result; conditions: solvent printed as — (none)
Description: The results of solvent grinding experiments of (S)-3′-(OH)-DADFT-PE magnesium salt form A are given below in Table 39, wherein LC stands for low crystallinity.

[3] = Dynamic vapor sorption/desorption (DVS)
Description: As described above, Form D was obtained via DVS experimentation with Form B, and Form B was generated with crystallization experiments using solvent mixtures containing methanol or water (e.g., MeOH/acetone, IPA/MeOH, heptane/MeOH, water (solvent grinding), water (antisolvent precipitation), or water (slurry at ambient)). DVS experimentation with Form B is as follows: Dynamic vapor sorption/desorption (DVS) data were collected on a VTI SGA-100 Vapor Sorption Analyzer. Sorption and desorption data were collected over a range of 5% to 95% relative humidity (RH) at 10% RH intervals under a nitrogen purge. Samples were not dried prior to analysis. Equilibrium criteria used for analysis were less than 0.0100% weight change in 5 minutes, with a maximum equilibration time of 3 hours if the weight criterion was not met. Data were not corrected for the initial moisture content of the sample. Sodium chloride and polyvinylpyrrolidine were used as calibration standards.

[4] = Aqueous solubility of salts; conditions: tromethamine salt; read-out: aqueous solubility
Description: Typically, oral formulations described herein facilitate solubilizing an active ingredient (e.g., a desazadesferrithiocin analog, salt or polymorph) at a desired amount or rate suitable for the treatment of metal overload. As used herein, the term “solubility” is generally intended to be synonymous with the term “aqueous solubility,” and refers to the ability, and the degree of the ability, of a compound to dissolve in water or an aqueous solvent or buffer, as might be found under physiological conditions. Aqueous solubility is, in and of itself, a useful quantitative measure, but it has additional utility as a correlate and predictor, with some limitations which will be clear to those of skill in the art, of oral bioavailability. Typically, a soluble compound is generally desirable, and the more soluble, the better. In liquid formulations, solubility is typically reported in mg/mL, but other measures, such as g/g, may be used. Solubilities typically deemed acceptable may range from 1 mg/mL into the hundreds or thousands of mg/mL.
Solubility may be measured under varying conditions. For example, it may be measured under conditions similar to those found in the body, such as at gastric pH or at physiologic or near-physiologic pH. “Gastric pH” as used herein means about pH 1. […]

[5] = Relative humidity stress (deliquescence, hygroscopicity); conditions: ~75% RH stress
[6] = Vapor stress experiments of amorphous magnesium salt, XRPD result; set-up: key: IS stands for insufficient solid
Description: The results of vapor stress experiments of amorphous (S)-3′-(OH)-DADFT-PE magnesium salt are given below in Table 37, wherein LC stands for low crystallinity and IS stands for insufficient solid.

[7] = Vapor diffusion experiments of amorphous magnesium salt, XRPD result; conditions: antisolvent Hexanes
Description: The results of vapor diffusion experiments of amorphous (S)-3′-(OH)-DADFT-PE magnesium salt are given below in Table 38, wherein LC stands for low crystallinity.

Compound: COCCOCCOCCOc1cccc(C2=N[C@@](C)(C(=O)[O-])CS2)c1O.COCCOCCOCCOc1cccc(C2=N[C@@](C)(C(=O)[O-])CS2)c1O.[Mg+2] [listing 1 of 2 here]
- XRPD Result ([1]; solvent ACN/THF (1:1), 60° C./4 d): A + peaks
- XRPD Result ([1]; solvent EtOH/H2O (1:1), Ambient): IS
- XRPD Result ([1]; solvent EtOH/H2O (1:9), Ambient): IS
- XRPD Result ([1]; solvent Heptane/DCM (2:8), Ambient): A (LC)
- XRPD Result ([1]; solvent Heptane/EtOH (2:8), Ambient): Amorphous
- XRPD Result ([1]; solvent IPA, 60° C./4 d): Amorphous
- XRPD Result ([1]; solvent IPA/Acetone (1:1), Ambient): IS
- XRPD Result ([1]; solvent Water, 60° C./1 d): Amorphous
- XRPD Result [2]: A (LC)

Compound: COCCOCCOCCOc1cccc(C2=N[C@@](C)(C(=O)O)CS2)c1O [Form B, (S)-3′-(OH)-DADFT-PE magnesium salt form B]
- hygroscopicity (DVS data) [3]: hygroscopic
- weight loss upon desorption [3]: 26.6%
- additional weight gain during sorption step ([3]; above 65% RH, without reaching equilibrium weight): 21.2%
- weight loss upon equilibrium ([3]; at 5% RH): 10.8%
- weight gain during sorption step ([3]; from 5% to 65% RH): 5.7%

- solubility [4]: > 124 mg/mL
- deliquescence upon RH stress [5]: no apparent deliquescence
- weight gained ([3]; above ~65% RH): ~50.3 wt %
- water uptake ([3]; below ~65% RH): ~1.5 wt %
Compound: COCCOCCOCCOc1ccc(C2=N[C@@](C)(C(=O)O)CS2)c(O)c1 [Compound 2, Tromethamine salt of (S)-4′-(OH)-DADFT-PE]

Compound: COCCOCCOCCOc1cccc(C2=N[C@@](C)(C(=O)[O-])CS2)c1O.COCCOCCOCCOc1cccc(C2=N[C@@](C)(C(=O)[O-])CS2)c1O.[Mg+2] [listing 2 of 2 here]
- XRPD Result ([6]; solvent 1,4-Dioxane): IS
- XRPD Result ([6]; solvent Acetone): A (LC)
- XRPD Result ([6]; solvent DCM): IS
- XRPD Result ([6]; solvent EtOAc): IS
- XRPD Result ([6]; solvent MEK): IS
- XRPD Result ([7]; solvent Acetone): A (LC)
- XRPD Result ([7]; solvent DCM): A (LC)
- XRPD Result ([7]; solvent EtOAc): A (LC)
- XRPD Result ([7]; solvent MEK): Amorphous
- XRPD Result ([7]; solvent THF): A (LC)
- XRPD Result ([7]; solvent Toluene): A (LC)
